{"source": "paper PMC12867150", "about": "“A fungi-derived cyclic peptide enhances Th9-mediated antitumor immunity by targeting ZAP70 and SREBP1” (The Journal of Clinical Investigation, 2025)", "key": {"TNF-α in Th9 cells": {"system": "TNF-α in Th9 cells", "assay": "Flow cytometry of TNF-α in Th9 cells in vitro (Figure 3F, 5I, 7C, S8M-N)", "type": "cell-based, mouse", "parameters": "TNF expression in Th9 cells / TNF-α expression of Th9 cells: unit not given here", "conditions": "for TNF (flow cytometric quantification): Figure 5I, (n = 5); for TNF expression in Th9 cells: Figure 7C, one per column (n = 4); for TNF-α expression of Th9 cells: Supplemental Figure 8N", "experimental": "Naive CD4^+ T cells were isolated from the spleens of C57BL/6J or CD45.1^+ OT-II mice using the MojoSort Mouse CD4 Naive T Cell Isolation Kit (BioLegend, catalog 480040), following the manufacturer’s protocol. Purified cells were cultured in RPMI-1640 medium supplemented with 10% FBS, 1% penicillin-streptomycin, and 0.1% β-mercaptoethanol (Gibco, catalog 21985023).\nT cell polarization was initiated under plate-bound anti-CD3 (2 μg/mL, clone 17A2, BioXCell, catalog BE0002) and soluble anti-CD28 (1 μg/mL, clone 37.51, BioXCell, catalog BE0015-1) stimulation, with the addition of cytokines and neutralizing antibodies specific to each subset. For Th9 cells, these included IL-4 (10 ng/mL, Peprotech, catalog 400-04), TGF-β (1 ng/mL, EPOTO Biotech, catalog HF-2021), anti–IL-12 (5 μg/mL, clone C17.8, BioXCell, catalog BE0051), and anti–IFN-γ (10 μg/mL, clone XMG1.2, BioXCell, catalog BE0055); for Th1 cells, these included IL-12 (10 ng/mL, GenScript, catalog Z03211-50) and anti–IL-4 (5 μg/mL, clone 11B11, BioXCell, catalog BE0045); for Th2 cells, these included IL-4 (50 ng/mL), anti–IFN-γ (20 μg /mL), anti–IL-12 (5 μg/mL), Th17 cells: IL-6 (20 ng/mL, EPOTO Biotech, catalog MF-1006), TGF-β (1 ng/mL), IL-1β (10 ng/mL, Peprotech, catalog AF-211-11B), anti–IFN-γ (10 μg/mL), anti–IL-12 (5 μg/mL), and anti–IL-4 (5 μg/mL); and for Tregs, these included TGF-β (3 ng/mL). After 3 days of initial culture, cells were either collected for downstream assays or continued in extended culture with refreshed cytokines to maintain lineage commitment.\nDetails regarding staining panels (human and mouse), reagents (including clones and catalog numbers), acquisition settings, compensation/controls, and analysis procedures are provided in Supplemental Methods.\nBioLegend, Cat. No. 422301 or Mouse TruStain FcX™, BioLegend, Cat. No. 101319) for 10 minutes at 4°C. For surface marker detection, cells were stained with fluorochrome-conjugated monoclonal antibodies in 96-well V-bottom plates and incubated on ice for 30 minutes. After staining, cells were washed twice and resuspended in FACS buffer for analysis.\nPrior to intracellular cytokine staining, cells were restimulated for 4 hours with PMA (Absin, Cat. No. abs9107), ionomycin (Sigma-Aldrich, Cat. No. I0634), and brefeldin A (MedChemExpress, Cat. No. HY-16592). For intracellular cytokine staining, cells were first surface-stained as described above, then fixed and permeabilized using the BD Cytofix/Cytoperm™ kit (BD Biosciences, Cat. No. 554714) according to the manufacturer ’s protocol. Intracellular proteins were stained with directly conjugated antibodies targeting IL-9, IL-17a, IL-4, IFN-γ, TNF-α, FOXP3, p-ZAP70, Perforin, and […]\nAntibodies used for mouse samples included those against IL-9 (PE, clone RM9A4, Biolegend, Cat. No. 514104), IFN-γ (PE, clone XMG1.2, Biolegend, Cat. No.\nCat. No. 103138), CD4 (APC/Cy7, clone E-AB-F1353UJ, Elabscience, Cat. No.\nAF18028), CD8α (PerCP/Cy5.5, clone E-AB-F1104UJ, Elabscience, Cat. No. […]\nclone E-AB-F1187UH, Elabscience, Cat. No. AF19854), TNF-α (BV421, clone MP6-XT22, Biolegend, Cat. No. 506328), FOXP3 (PE, clone FJK-16s, eBioscience, Cat. No.\nPerforin (APC, clone S16009A, Biolegend, Cat. No. 154303) and Granzyme B (APC, […]\nclone QA16A02, Biolegend, Cat. No. 372203). […]"}, "[1]": {"system": "gene expression in Th9 cells", "assay": "Bulk RNA-seq of Th9 cells (Figure 3A-D, 7G, S5B, S8G-H)", "type": "cell-based, mouse", "parameters": "key to Il13 expression (RNA-seq) / Batf expression (RNA-seq) / Il4 expression (RNA-seq) / Il5 expression (RNA-seq) / Il9 expression (RNA-seq) / Tnfsf15 expression (RNA-seq) / Tnf expression (RNA-seq) / Lta expression (RNA-seq) / Fasl expression (RNA-seq) / Tnfsf9 expression (RNA-seq) / Tnfsf14 expression (RNA-seq): FPKM (fragments per kilobase of transcript per million mapped reads)", "conditions": "for cluster 2 genes (calcium ion transport, glycolysis, oxidative phosphorylation, ERK signaling) / lipid biosynthesis genes: RNA-seq clustering; for Fpkm of Slc2a1: Supplemental Figure 5B", "experimental": "RNA integrity and concentration were assessed by Majorbio Technologies. RNA-seq libraries were constructed following standard Illumina protocols and sequenced using a paired-end strategy on an Illumina platform.\nRaw sequencing reads were quality filtered and adapter trimmed using Trim Galore (v0.6.x) and then aligned to the mouse reference genome (GRCm38) with HISAT2 (v2.2.x). Gene-level quantification was performed using featureCounts (v2.0.x) to obtain raw read counts, which were subsequently normalized as fragments per kilobase of transcript per million mapped reads for exploratory analyses and data visualization.\nDifferential gene expression analysis was conducted using DESeq2 (v1.44.0) in R, with significance thresholds set at an adjusted P < 0.05 and absolute fold change ≥1.5. Visualization of transcriptomic profiles included volcano plots generated via ggplot2 (v3.5.1) and heatmaps rendered using pheatmap (v1.0.12), based on raw expression values.\nGene expression clustering was conducted using the R package ClusterGVis (v0.1.2)."}, "[2]": {"conditions": "EpA + fatostatin, result in words"}, "[3]": {"conditions": "single agent, 10 µM, individual replicates"}, "[4]": {"conditions": "EpA vs control, adjusted P < 0.05, fold change ≥1.5"}, "[5]": {"conditions": "Th9, day 4, samples EPA_1 to EPA_3"}}, "note": "Values joined by “and” are separate entries in the source; they are usually repeats but may differ in a detail not shown here. Equal entries are not always repeated. Structures can show the parent of a compound that is named as a salt."}
{"molecule": "anteiso-C15 Leu7 surfactin [EpA]", "values": [{"measurement": "TNF-α production", "setting": "TNF-α in Th9 cells; [2]", "value": "elevated in the combination group"}, {"measurement": "MFI of TNF-α", "setting": "TNF-α in Th9 cells; EpA-treated Th9 cells, individual replicates, n = 6", "value": "2286 and 2180 and 2244 and 2177 and 2115 and 2169"}, {"measurement": "TNF (flow cytometric quantification)", "setting": "TNF-α in Th9 cells; EpA + ERKin combination, individual replicates", "value": "2696 and 2174 and 2281 and 2032 and 1920"}, {"measurement": "TNF (flow cytometric quantification)", "setting": "TNF-α in Th9 cells; EpA + MEKin combination, individual replicates", "value": "1415 and 1401 and 1417 and 1456 and 1441"}, {"measurement": "TNF (flow cytometric quantification)", "setting": "TNF-α in Th9 cells; single agent, individual replicates", "value": "2873 and 2973 and 3771 and 3384 and 2525"}, {"measurement": "TNF expression in Th9 cells", "setting": "TNF-α in Th9 cells; EpA (10 µM) + Fatostatin (10 µM), individual replicates", "value": "3879 and 3735 and 3908 and 3188"}, {"measurement": "TNF expression in Th9 cells", "setting": "TNF-α in Th9 cells; [3]", "value": "2951 and 2896 and 2950 and 2779"}, {"measurement": "TNF-α expression of Th9 cells", "setting": "TNF-α in Th9 cells; MigR1, replicate 1", "value": 2796}, {"measurement": "TNF-α expression of Th9 cells", "setting": "TNF-α in Th9 cells; MigR1, replicate 2", "value": 2837}, {"measurement": "TNF-α expression of Th9 cells", "setting": "TNF-α in Th9 cells; MigR1, replicate 3", "value": 2787}, {"measurement": "TNF-α expression of Th9 cells", "setting": "TNF-α in Th9 cells; SREBP1, replicate 1", "value": 2060}, {"measurement": "TNF-α expression of Th9 cells", "setting": "TNF-α in Th9 cells; SREBP1, replicate 2", "value": 1962}, {"measurement": "TNF-α expression of Th9 cells", "setting": "TNF-α in Th9 cells; SREBP1, replicate 3", "value": 1934}, {"measurement": "EpA-induced TNF-α increase (protein) upon SREBP1 overexpression", "setting": "TNF-α in Th9 cells; result in words", "value": "markedly suppressed"}, {"measurement": "Fads1 expression", "setting": "[1]; [2]", "value": "reduced expression"}, {"measurement": "Srebp1 expression", "setting": "[1]; [2]", "value": "reduced expression"}, {"measurement": "number of downregulated genes", "setting": "[1]; [4]", "value": 271}, {"measurement": "number of upregulated genes", "setting": "[1]; [4]", "value": 228}, {"measurement": "cluster 2 genes (calcium ion transport, glycolysis, oxidative phosphorylation, ERK signaling)", "setting": "[1]; result in words", "value": "notably upregulated"}, {"measurement": "lipid biosynthesis genes", "setting": "[1]; result in words", "value": "progressively downregulated"}, {"measurement": "Fpkm of Slc2a1", "setting": "[1]; replicate 1", "value": 48.3562, "unit": "Fpkm"}, {"measurement": "Fpkm of Slc2a1", "setting": "[1]; replicate 2", "value": 48.7446, "unit": "Fpkm"}, {"measurement": "Fpkm of Slc2a1", "setting": "[1]; replicate 3", "value": 49.9027, "unit": "Fpkm"}, {"measurement": "Batf expression (RNA-seq)", "setting": "[1]; [5]", "value": "93.0998 and 96.722 and 96.1164"}, {"measurement": "Fasl expression (RNA-seq)", "setting": "[1]; [5]", "value": "9.708 and 9.458 and 10.2176"}, {"measurement": "Il4 expression (RNA-seq)", "setting": "[1]; [5]", "value": "8.523 and 8.979 and 8.835"}, {"measurement": "Il5 expression (RNA-seq)", "setting": "[1]; [5]", "value": "0.7687 and 0.6368 and 0.9066"}, {"measurement": "Il9 expression (RNA-seq)", "setting": "[1]; [5]", "value": "619.89 and 651.961 and 648.029"}, {"measurement": "Il13 expression (RNA-seq)", "setting": "[1]; [5]", "value": "15.584 and 17.9728 and 14.2881"}, {"measurement": "Lta expression (RNA-seq)", "setting": "[1]; [5]", "value": "41.371 and 42.2064 and 41.7705"}, {"measurement": "Tnf expression (RNA-seq)", "setting": "[1]; [5]", "value": "5.46 and 5.834 and 6.11"}, {"measurement": "Tnfsf9 expression (RNA-seq)", "setting": "[1]; [5]", "value": "1.423 and 1.362 and 1.3365"}, {"measurement": "Tnfsf14 expression (RNA-seq)", "setting": "[1]; [5]", "value": "5.499 and 5.503 and 5.511"}, {"measurement": "Tnfsf15 expression (RNA-seq)", "setting": "[1]; [5]", "value": "0.1165 and 0.1206 and 0.07294"}, {"measurement": "SLC2A1 expression", "setting": "[1]; result in words", "value": "markedly upregulated"}, {"measurement": "Th9 cytokines (Il9, Il4, Il5, Il13) and Spi1, Batf expression", "setting": "[1]; result in words", "value": "upregulated"}, {"measurement": "cytotoxic effector molecules Tnf, Lta, Fasl", "setting": "[1]; result in words", "value": "strong upregulation"}]}
{"molecule": "CCCc1cc(-c2nc(-c3ccc(C)cc3)cs2)ccn1", "note": "[fatostatin, fatostatin hydrobromide, reference compound]", "values": [{"measurement": "TNF expression in Th9 cells", "setting": "TNF-α in Th9 cells; [3]", "value": "2574 and 2507 and 2536 and 2484"}, {"measurement": "cluster 2 genes (calcium ion transport, glycolysis, oxidative phosphorylation, ERK signaling)", "setting": "[1]; result in words", "value": "further enhanced"}, {"measurement": "lipid biosynthesis genes", "setting": "[1]; result in words", "value": "further suppressed"}]}
